Reference: patent publication US20260027116A1, “Methods of Treating Chronic Graft-Versus-Host Disease Following Allogeneic Hematopoietic Stem Cell Transplantation” (Kadmon Corporation, LLC, priority 2022, published 2026)

Columns and labels:
lung function = test: Example 1: percent predicted TLC change from baseline; type: in vivo, human; details: mean (SD)
Protocol: Change From Baseline in Percent Predicted Total Lung Capacity (TLC) at Each Specified Time Points. TLC is the volume of air in the lungs upon the maximum effort of inspiration. Baseline value was defined as valid and last non-missing value obtained within 28 days prior to participant receiving first study medication. EOT visit was performed within 3 days after the participant's last dose of study drug. […] Analysis was performed on mITT population. Here, ‘number analyzed’=participants with available data for each specified category. Here, ‘0’ in the number analyzed field signifies that none of the participants were available for the analysis at the specified time points.

human serum albumin = human serum albumin (Homo sapiens, UniProt P02768); test: protein binding in vitro; type: in vitro ADME
Sequence of human serum albumin (P02768 25-609): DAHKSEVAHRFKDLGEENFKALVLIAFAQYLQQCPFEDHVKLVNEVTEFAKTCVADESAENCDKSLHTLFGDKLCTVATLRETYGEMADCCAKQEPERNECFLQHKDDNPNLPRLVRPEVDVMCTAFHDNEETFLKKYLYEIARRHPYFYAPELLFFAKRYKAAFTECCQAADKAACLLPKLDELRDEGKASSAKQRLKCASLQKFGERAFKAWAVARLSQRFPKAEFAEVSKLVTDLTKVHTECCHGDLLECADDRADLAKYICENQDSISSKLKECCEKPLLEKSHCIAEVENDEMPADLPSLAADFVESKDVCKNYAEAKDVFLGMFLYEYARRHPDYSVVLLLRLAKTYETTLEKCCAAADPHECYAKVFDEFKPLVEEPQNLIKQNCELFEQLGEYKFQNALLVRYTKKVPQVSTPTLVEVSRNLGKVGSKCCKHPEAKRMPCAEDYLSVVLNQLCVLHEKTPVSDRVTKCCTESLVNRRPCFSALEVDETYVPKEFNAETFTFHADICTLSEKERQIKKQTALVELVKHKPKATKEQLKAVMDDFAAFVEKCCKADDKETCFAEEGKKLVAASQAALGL

CC(C)NC(=O)COc1cccc(-c2nc(Nc3ccc4[nH]ncc4c3)c3ccccc3n2)c1 [Belumosudil, 2-{3-[4-(1H-indazol-5-ylamino)-2-quinazolinyl]phenoxy}-N-(propan-2-yl) acetamide]
Change From Baseline in Percent Predicted Total Lung Capacity (TLC) (lung function; Cohort 2: 200 mg BID, Cycle 13, Day 1): −10.3 (18.7) Percent Predicted TLC | Change From Baseline in Percent Predicted Total Lung Capacity (TLC) (lung function; Cohort 2: 200 mg BID, Cycle 14, Day 1): −7.0 (—) Percent Predicted TLC | Change From Baseline in Percent Predicted Total Lung Capacity (TLC) (lung function; Cohort 2: 200 mg BID, Cycle 15, Day 1): −1.0 (5.6) Percent Predicted TLC | Change From Baseline in Percent Predicted Total Lung Capacity (TLC) (lung function; Cohort 2: 200 mg BID, Cycle 16, Day 1): −14.0 (12.7) Percent Predicted TLC | Change From Baseline in Percent Predicted Total Lung Capacity (TLC) (lung function; Cohort 2: 200 mg BID, Cycle 17, Day 1): −17.0 (11.4) Percent Predicted TLC | Change From Baseline in Percent Predicted Total Lung Capacity (TLC) (lung function; Cohort 2: 200 mg BID, Cycle 18, Day 1): −16.0 (8.5) Percent Predicted TLC | Change From Baseline in Percent Predicted Total Lung Capacity (TLC) (lung function; Cohort 2: 200 mg BID, Cycle 19, Day 1): −7.7 (10.5) Percent Predicted TLC | Change From Baseline in Percent Predicted Total Lung Capacity (TLC) (lung function; Cohort 2: 200 mg BID, Cycle 20, Day 1): −9.5 (16.3) Percent Predicted TLC | Change From Baseline in Percent Predicted Total Lung Capacity (TLC) (lung function; Cohort 2: 200 mg BID, Cycle 21, Day 1): −18.0 (—) Percent Predicted TLC | Change From Baseline in Percent Predicted Total Lung Capacity (TLC) (lung function; Cohort 2: 200 mg BID, Cycle 22, Day 1): −18.5 (6.4) Percent Predicted TLC | Change From Baseline in Percent Predicted Total Lung Capacity (TLC) (lung function; Cohort 2: 200 mg BID, Cycle 23, Day 1): −21.0 (19.8) Percent Predicted TLC | Change From Baseline in Percent Predicted Total Lung Capacity (TLC) (lung function; Cohort 2: 200 mg BID, Cycle 24, Day 1): −15.0 (—) Percent Predicted TLC | Change From Baseline in Percent Predicted Total Lung Capacity (TLC) (lung function; Cohort 2: 200 mg BID, Cycle 25, Day 1): −19.5 (13.4) Percent Predicted TLC | Change From Baseline in Percent Predicted Total Lung Capacity (TLC) (lung function; Cohort 2: 200 mg BID, Cycle 27, Day 1): −24.0 (12.7) Percent Predicted TLC | Change From Baseline in Percent Predicted Total Lung Capacity (TLC) (lung function; Cohort 2: 200 mg BID, Cycle 29, Day 1): −27.5 (21.9) Percent Predicted TLC | Change From Baseline in Percent Predicted Total Lung Capacity (TLC) (lung function; Cohort 2: 200 mg BID, Cycle 31, Day 1): −36.0 (—) Percent Predicted TLC | Change From Baseline in Percent Predicted Total Lung Capacity (TLC) (lung function; Cohort 2: 200 mg BID, Cycle 33, Day 1): −39.0 (—) Percent Predicted TLC | Change From Baseline in Percent Predicted Total Lung Capacity (TLC) (lung function; Cohort 2: 200 mg BID, Cycle 35, Day 1): −23.5 (16.3) Percent Predicted TLC | Change From Baseline in Percent Predicted Total Lung Capacity (TLC) (lung function; Cohort 2: 200 mg BID, EOT): −2.4 (15.0) Percent Predicted TLC | Change From Baseline in Percent Predicted Total Lung Capacity (TLC) (lung function; Cohort 3: 400 mg QD, Cycle 2, Day 1): −9.0 (13.4) Percent Predicted TLC | Change From Baseline in Percent Predicted Total Lung Capacity (TLC) (lung function; Cohort 3: 400 mg QD, Cycle 3, Day 1): −0.6 (14.8) Percent Predicted TLC | Change From Baseline in Percent Predicted Total Lung Capacity (TLC) (lung function; Cohort 3: 400 mg QD, Cycle 4, Day 1): 3.3 (14.0) Percent Predicted TLC | Change From Baseline in Percent Predicted Total Lung Capacity (TLC) (lung function; Cohort 3: 400 mg QD, Cycle 5, Day 1): −1.7 (11.2) Percent Predicted TLC | Change From Baseline in Percent Predicted Total Lung Capacity (TLC) (lung function; Cohort 3: 400 mg QD, Cycle 6, Day 1): −4.4 (11.6) Percent Predicted TLC | Change From Baseline in Percent Predicted Total Lung Capacity (TLC) (lung function; Cohort 3: 400 mg QD, Cycle 7, Day 1): −2.6 (13.4) Percent Predicted TLC | Change From Baseline in Percent Predicted Total Lung Capacity (TLC) (lung function; Cohort 3: 400 mg QD, Cycle 8, Day 1): −0.2 (12.9) Percent Predicted TLC | Change From Baseline in Percent Predicted Total Lung Capacity (TLC) (lung function; Cohort 3: 400 mg QD, Cycle 9, Day 1): −0.9 (15.8) Percent Predicted TLC | Change From Baseline in Percent Predicted Total Lung Capacity (TLC) (lung function; Cohort 3: 400 mg QD, Cycle 10, Day 1): 3.6 (14.7) Percent Predicted TLC | Change From Baseline in Percent Predicted Total Lung Capacity (TLC) (lung function; Cohort 3: 400 mg QD, Cycle 11, Day 1): −3.0 (19.7) Percent Predicted TLC | Change From Baseline in Percent Predicted Total Lung Capacity (TLC) (lung function; Cohort 3: 400 mg QD, Cycle 12, Day 1): −8.0 (14.2) Percent Predicted TLC | Change From Baseline in Percent Predicted Total Lung Capacity (TLC) (lung function; Cohort 3: 400 mg QD, Cycle 13, Day 1): −3.3 (17.6) Percent Predicted TLC | Change From Baseline in Percent Predicted Total Lung Capacity (TLC) (lung function; Cohort 3: 400 mg QD, Cycle 14, Day 1): −5.8 (16.5) Percent Predicted TLC | Change From Baseline in Percent Predicted Total Lung Capacity (TLC) (lung function; Cohort 3: 400 mg QD, Cycle 15, Day 1): −7.0 (12.0) Percent Predicted TLC | Change From Baseline in Percent Predicted Total Lung Capacity (TLC) (lung function; Cohort 3: 400 mg QD, Cycle 16, Day 1): −15.5 (9.5) Percent Predicted TLC | Change From Baseline in Percent Predicted Total Lung Capacity (TLC) (lung function; Cohort 3: 400 mg QD, Cycle 17, Day 1): −18.1 (15.6) Percent Predicted TLC | Change From Baseline in Percent Predicted Total Lung Capacity (TLC) (lung function; Cohort 3: 400 mg QD, Cycle 18, Day 1): 0.0 (13.9) Percent Predicted TLC | Change From Baseline in Percent Predicted Total Lung Capacity (TLC) (lung function; Cohort 3: 400 mg QD, Cycle 19, Day 1): −7.0 (5.4) Percent Predicted TLC | Change From Baseline in Percent Predicted Total Lung Capacity (TLC) (lung function; Cohort 3: 400 mg QD, Cycle 20, Day 1): −9.3 (15.4) Percent Predicted TLC | Change From Baseline in Percent Predicted Total Lung Capacity (TLC) (lung function; Cohort 3: 400 mg QD, Cycle 21, Day 1): −14.4 (24.0) Percent Predicted TLC | Change From Baseline in Percent Predicted Total Lung Capacity (TLC) (lung function; Cohort 3: 400 mg QD, Cycle 22, Day 1): −21.0 (14.1) Percent Predicted TLC | Change From Baseline in Percent Predicted Total Lung Capacity (TLC) (lung function; Cohort 3: 400 mg QD, Cycle 23, Day 1): −2.8 (18.8) Percent Predicted TLC | Change From Baseline in Percent Predicted Total Lung Capacity (TLC) (lung function; Cohort 3: 400 mg QD, Cycle 24, Day 1): −34.0 (—) Percent Predicted TLC | Change From Baseline in Percent Predicted Total Lung Capacity (TLC) (lung function; Cohort 3: 400 mg QD, Cycle 25, Day 1): −6.3 (24.1) Percent Predicted TLC | Change From Baseline in Percent Predicted Total Lung Capacity (TLC) (lung function; Cohort 3: 400 mg QD, Cycle 27, Day 1): −14.5 (24.7) Percent Predicted TLC | Change From Baseline in Percent Predicted Total Lung Capacity (TLC) (lung function; Cohort 3: 400 mg QD, Cycle 29, Day 1): 12.0 (14.1) Percent Predicted TLC | Change From Baseline in Percent Predicted Total Lung Capacity (TLC) (lung function; Cohort 3: 400 mg QD, Cycle 31, Day 1): 17.0 (—) Percent Predicted TLC | Change From Baseline in Percent Predicted Total Lung Capacity (TLC) (lung function; Cohort 3: 400 mg QD, Cycle 35, Day 1): 13.0 (—) Percent Predicted TLC | Change From Baseline in Percent Predicted Total Lung Capacity (TLC) (lung function; Cohort 3: 400 mg QD, Cycle 36, Day 1): −6.0 (—) Percent Predicted TLC | Change From Baseline in Percent Predicted Total Lung Capacity (TLC) (lung function; Cohort 3: 400 mg QD, Cycle 49, Day 1): 1.0 (—) Percent Predicted TLC | Change From Baseline in Percent Predicted Total Lung Capacity (TLC) (lung function; Cohort 3: 400 mg QD, EOT): −12.6 (20.1) Percent Predicted TLC | binding to human serum albumin (human serum albumin): 99.9%
